Values quoted from earlier work as cited in patent EP1862927B1, “Descriptors of three-dimensional objects, uses thereof and a method to generate the same” (SILICOS NV, priority 2006, dated 2007).

Target: T1, human soluble epoxide hydrolase (Homo sapiens, UniProt P34913)
T1 sequence (P34913 1-555): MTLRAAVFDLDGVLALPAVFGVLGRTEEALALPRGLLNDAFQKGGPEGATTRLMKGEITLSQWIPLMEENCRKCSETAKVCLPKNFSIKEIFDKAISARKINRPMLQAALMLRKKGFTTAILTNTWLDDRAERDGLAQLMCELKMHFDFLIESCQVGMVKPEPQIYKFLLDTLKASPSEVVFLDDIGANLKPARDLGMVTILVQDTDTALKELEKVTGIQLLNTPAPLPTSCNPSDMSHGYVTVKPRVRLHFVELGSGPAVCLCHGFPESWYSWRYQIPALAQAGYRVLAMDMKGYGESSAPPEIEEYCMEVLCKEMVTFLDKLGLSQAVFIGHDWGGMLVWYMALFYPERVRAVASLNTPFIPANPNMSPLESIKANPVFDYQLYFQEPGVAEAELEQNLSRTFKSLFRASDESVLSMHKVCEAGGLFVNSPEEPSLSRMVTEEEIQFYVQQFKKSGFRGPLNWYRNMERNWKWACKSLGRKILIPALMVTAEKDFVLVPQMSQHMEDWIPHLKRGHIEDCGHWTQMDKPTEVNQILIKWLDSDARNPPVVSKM
Settings: inhibition constants of urea-like molecular species taken from McElroy et al., J. Med. Chem. 46, 1066-1080

- IC50: 100 nM
Structure (SMILES): O=C(NCC1CCCCC1)NC1C2CC3CC(C2)CC1C3 (stereo not shown) [molecular species 136]
